Source: ChEMBL document CHEMBL1201862, “PubChem BioAssay data set” (2004)
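Values below derive from 48-hour exposures of cells grown in 96-well plates, with endpoints linearly interpolated between the two concentrations bracketing the appropriate inhibition level. At the GI50, growth is halved.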 Calls of active or inactive are those of the source. Cut-off read from the data, not from the text of the source: active = GI50 up to about 1.1 µM and inactive = higher.

Columns and labels:
Assay in all cases: NCI tumour cell line growth inhibition, 48 h
[1] = test system: 786-0
[2] = test system: A498
[3] = test system: A549
[4] = test system: ACHN
[5] = test system: BT-549
[6] = test system: CAKI-1
[7] = test system: CCRF-CEM
[8] = test system: COLO 205
[9] = test system: DU-145
[10] = test system: EKVX
[11] = test system: HCC 2998
[12] = test system: HCT-116
[13] = test system: HCT-15
[14] = test system: HL-60
[15] = test system: HOP-62
[16] = test system: HOP-92
[17] = test system: HT-29
[18] = test system: Hs-578T
[19] = test system: K562
[20] = test system: KM12
[21] = test system: LOX IMVI
[22] = test system: M14
[23] = test system: MCF7
[24] = test system: MDA-MB-231
[25] = test system: MDA-MB-435
[26] = test system: MDA-N
[27] = test system: MOLT-4
[28] = test system: Malme-3M
[29] = test system: NCI-H226
[30] = test system: NCI-H23
[31] = test system: NCI-H460
[32] = test system: NCI-H522
[33] = test system: NCI/ADR-RES
[34] = test system: OVCAR-3
[35] = test system: OVCAR-4
[36] = test system: OVCAR-5
[37] = test system: OVCAR-8
[38] = test system: PC-3
[39] = test system: RPMI-8226
[40] = test system: RXF 393
[41] = test system: SF-268
[42] = test system: SF-295
[43] = test system: SF-539
[44] = test system: SK-MEL-28
[45] = test system: SK-MEL-2
[46] = test system: SK-MEL-5
[47] = test system: SK-OV-3
[48] = test system: SN12C
[49] = test system: SR
[50] = test system: SW-620
[51] = test system: T47D
[52] = test system: TK-10
[53] = test system: U-251
[54] = test system: UACC-257
[55] = test system: UACC-62
[56] = test system: UO-31
[57] = test system: IGROV-1
[58] = test system: SNB-19
[59] = test system: SNB-75

## CCCCCC[C@H]1C(=O)O[C@H](C)[C@H](NC(=O)c2cccc(NC=O)c2OC)C(=O)O[C@@H](C)[C@@H]1OC(=O)C(C)CC.CCCCCC[C@H]1C(=O)O[C@H](C)[C@H](NC(=O)c2cccc(NC=O)c2OC)C(=O)O[C@@H](C)[C@@H]1OC(=O)CC(C)C (stereo not given in full)
[1]
  GI50: 18.6 µM (inactive)
[2]
  GI50: 12.4 µM (inactive)
[3]
  GI50: 5.9 µM (inactive)
[4]
  GI50: 5.83 µM (inactive)
[5]
  GI50: 27 µM (inactive)
[6]
  GI50: 12.9 µM (inactive)
[7]
  GI50: 6.08 µM (inactive)
[8]
  GI50: 7.62 µM (inactive)
[9]
  GI50: 15.7 µM (inactive)
[10]
  GI50: 7.62 µM (inactive)
[11]
  GI50: 89.7 µM (inactive)
[12]
  GI50: 10.1 µM (inactive)
[13]
  GI50: 14.7 µM
[14]
  GI50: 4.53 µM (inactive)
[15]
  GI50: > 100 µM (inactive)
[16]
  GI50: 17.5 µM (inactive)
[17]
  GI50: 8.59 µM (inactive)
[18]
  GI50: 12.1 µM (inactive)
[19]
  GI50: 7.85 µM (inactive)
[20]
  GI50: 18.8 µM (inactive)
[21]
  GI50: 25.9 µM (inactive)
[22]
  GI50: 39.7 µM (inactive)
[23]
  GI50: 4.88 µM (inactive)
[24]
  GI50: 15.8 µM (inactive)
[25]
  GI50: 11.6 µM (inactive)
[26]
  GI50: 13.2 µM (inactive)
[27]
  GI50: 6.65 µM (inactive)
[28]
  GI50: > 100 µM (inactive)
[29]
  GI50: 17.6 µM (inactive)
[30]
  GI50: 8.49 µM (inactive)
[31]
  GI50: 4.83 µM (inactive)
[32]
  GI50: 12.2 µM (inactive)
[33]
  GI50: 7.59 µM (inactive)
[34]
  GI50: 6.71 µM (inactive)
[35]
  GI50: 5.41 µM (inactive)
[36]
  GI50: > 100 µM (inactive)
[37]
  GI50: 11.6 µM (inactive)
[38]
  GI50: 6.28 µM (inactive)
[39]
  GI50: 8.57 µM (inactive)
[40]
  GI50: > 100 µM (inactive)
[41]
  GI50: 26.1 µM (inactive)
[42]
  GI50: 14.5 µM (inactive)
[43]
  GI50: 29.3 µM (inactive)
[44]
  GI50: > 100 µM (inactive)
[45]
  GI50: 25.6 µM (inactive)
[46]
  GI50: 5.15 µM (inactive)
[47]
  GI50: 15.3 µM (inactive)
[48]
  GI50: 29.6 µM (inactive)
[49]
  GI50: 5.82 µM (inactive)
[50]
  GI50: 14.5 µM (inactive)
[51]
  GI50: 20.8 µM (inactive)
[52]
  GI50: 16 µM (inactive)
[53]
  GI50: 11.7 µM (inactive)
[54]
  GI50: 3.96 µM (inactive)
[55]
  GI50: 8.49 µM (inactive)
[56]
  GI50: 46.8 µM (inactive)

## COCOc1c(C(O[Si](C)(C)C(C)(C)C)c2cnc(Sc3ccccc3)n2C)ccc(OC)c1OC (stereo not given)
[1]
  GI50: 1.82 µM (inactive)
[3]
  GI50: 1.88 µM (inactive)
[4]
  GI50: 2.42 µM (inactive)
[5]
  GI50: 1.69 µM (inactive)
[6]
  GI50: 3.03 µM (inactive)
[7]
  GI50: 2.84 µM (inactive)
[9]
  GI50: > 100 µM (inactive)
[10]
  GI50: 2.53 µM (inactive)
[11]
  GI50: 1.84 µM (inactive)
[12]
  GI50: 1.6 µM (inactive)
[13]
  GI50: 1.94 µM
[14]
  GI50: 1.87 µM (inactive)
[15]
  GI50: 1.66 µM (inactive)
[16]
  GI50: 2.13 µM (inactive)
[17]
  GI50: 1.93 µM (inactive)
[18]
  GI50: 2.31 µM (inactive)
[57]
  GI50: 1.97 µM (inactive)
[19]
  GI50: 2.75 µM (inactive)
[20]
  GI50: 1.92 µM (inactive)
[21]
  GI50: 1.84 µM (inactive)
[23]
  GI50: 1.76 µM (inactive)
[24]
  GI50: 1.66 µM (inactive)
[25]
  GI50: 1.75 µM (inactive)
[26]
  GI50: 1.77 µM (inactive)
[27]
  GI50: 2.54 µM (inactive)
[28]
  GI50: 2.45 µM (inactive)
[29]
  GI50: 1.85 µM (inactive)
[30]
  GI50: > 100 µM (inactive)
[31]
  GI50: 1.53 µM (inactive)
[32]
  GI50: 1.62 µM (inactive)
[33]
  GI50: 1.35 µM (inactive)
[34]
  GI50: 1.7 µM (inactive)
[35]
  GI50: 3 µM (inactive)
[36]
  GI50: > 100 µM (inactive)
[37]
  GI50: 1.43 µM (inactive)
[38]
  GI50: 1.55 µM (inactive)
[39]
  GI50: 1.85 µM (inactive)
[40]
  GI50: 1.36 µM (inactive)
[41]
  GI50: 1.64 µM (inactive)
[42]
  GI50: 2.65 µM (inactive)
[43]
  GI50: 1.97 µM (inactive)
[44]
  GI50: 1.84 µM (inactive)
[45]
  GI50: 1.31 µM (inactive)
[46]
  GI50: 1.82 µM (inactive)
[47]
  GI50: 2.05 µM (inactive)
[48]
  GI50: 1.78 µM (inactive)
[58]
  GI50: 2.14 µM (inactive)
[59]
  GI50: 2.2 µM (inactive)
[49]
  GI50: 2.47 µM (inactive)
[50]
  GI50: 1.93 µM (inactive)
[51]
  GI50: 0.256 µM (active)
[52]
  GI50: 4.28 µM (inactive)
[53]
  GI50: 1.64 µM (inactive)
[54]
  GI50: 2.25 µM (inactive)
[55]
  GI50: 1.65 µM (inactive)
[56]
  GI50: 1.83 µM (inactive)

## CC(=O)C1(c2ccccc2)CCCN(C)CC1 (stereo not given)
[2]
  GI50: > 100 µM (inactive)
[5]
  GI50: > 100 µM (inactive)
[6]
  GI50: > 100 µM (inactive)
[7]
  GI50: > 100 µM (inactive)
[8]
  GI50: > 100 µM (inactive)
[9]
  GI50: > 100 µM (inactive)
[11]
  GI50: > 100 µM (inactive)
[12]
  GI50: > 100 µM (inactive)
[13]
  GI50: > 100 µM
[15]
  GI50: > 100 µM (inactive)
[16]
  GI50: > 100 µM (inactive)
[17]
  GI50: > 100 µM (inactive)
[18]
  GI50: > 100 µM (inactive)
[57]
  GI50: > 100 µM (inactive)
[20]
  GI50: > 100 µM (inactive)
[21]
  GI50: > 100 µM (inactive)
[22]
  GI50: > 100 µM (inactive)
[23]
  GI50: > 100 µM (inactive)
[24]
  GI50: > 100 µM (inactive)
[25]
  GI50: > 100 µM (inactive)
[26]
  GI50: > 10 µM (inactive)
[27]
  GI50: > 100 µM (inactive)
[28]
  GI50: > 100 µM (inactive)
[29]
  GI50: > 100 µM (inactive)
[30]
  GI50: > 100 µM (inactive)
[31]
  GI50: > 100 µM (inactive)
[33]
  GI50: > 100 µM (inactive)
[34]
  GI50: > 100 µM (inactive)
[35]
  GI50: > 100 µM (inactive)
[36]
  GI50: > 100 µM (inactive)
[37]
  GI50: > 100 µM (inactive)
[38]
  GI50: > 100 µM (inactive)
[39]
  GI50: > 100 µM (inactive)
[42]
  GI50: > 100 µM (inactive)
[44]
  GI50: > 100 µM (inactive)
[45]
  GI50: > 100 µM (inactive)
[46]
  GI50: > 100 µM (inactive)
[47]
  GI50: > 100 µM (inactive)
[58]
  GI50: > 100 µM (inactive)
[59]
  GI50: > 100 µM (inactive)
[49]
  GI50: > 100 µM (inactive)
[50]
  GI50: > 100 µM (inactive)
[51]
  GI50: > 100 µM (inactive)
[52]
  GI50: > 100 µM (inactive)
[53]
  GI50: > 100 µM (inactive)
[54]
  GI50: > 100 µM (inactive)
[55]
  GI50: > 100 µM (inactive)
[56]
  GI50: > 100 µM (inactive)
